The values below come from US10681908B2, “Molecules having pesticidal utility, and intermediates, compositions, and processes, related thereto” (Dow AgroSciences LLC, priority 2016, dated 2020).

By mortality is commonly meant the share of the test organisms that died.

For assay [1], the system named is Beet Armyworm (Spodoptera exigua, LAPHEG). The assay can be described thus: Bioassay on Beet Armyworm (BAW), 128-well diet tray assay. Type of assay: in vivo. The settings on record: 168 h, 50 μg/cm^2 on artificial diet, second instar larvae, five to seven days, 25° C., read-out: BAW % Control (or Mortality) rating. In outline:
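Mortality of second-instar larvae (one to five per well) was scored after five to seven days at 25 °C under 14:10 light-dark and averaged across eight wells. Each well's diet had received 50 μg/cm^2 test molecule from a 90:10 acetone-water solution, allowed to dry before infestation.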

Assay [2] has as its system Cabbage Looper (Trichoplusia ni, TRIPNI). As to the kind of experiment: Bioassay on Cabbage Looper (CL), 128-well diet tray assay. Type of assay: in vivo. The settings on record: 168 h, 50 μg/cm^2 on artificial diet, second instar larvae, five to seven days, 25° C., read-out: CL % Control (or Mortality) rating. In outline:
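Percent mortality, averaged over eight wells, scored after five to seven days at 25° C. under 14:10 light-dark. Each well held 1–5 second-instar larvae on artificial diet treated with 50 μg/cm^2 test molecule applied in 90:10 acetone-water and dried.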

As for `CSC(C)CNC(=O)c1ccc(/C(F)=C/C(c2cc(Cl)c(Cl)c(Cl)c2)C(F)(F)F)cc1C(F)(F)F` (stereo not drawn) [F89, (Z)—N-(2-(Methylthio)propyl)-4-(1,4,4,4-tetrafluoro-3-(3,4,5-trichlorophenyl)but-1-en-1-yl)-2-(trifluoromethyl)benzamide], the mortality at 50 µg/cm2 in assay [1] and in assay [2] was 50 to 100% in each case.

Turning to `CC(CNC(=O)c1ccc(/C(F)=C/C(c2cc(Cl)c(Cl)c(Cl)c2)C(F)(F)F)cc1C(F)(F)F)[S+](C)[O-]` (stereo not drawn) [F90, (Z)—N-(2-(Methylsulfinyl)propyl)-4-(1,4,4,4-tetrafluoro-3-(3,4,5-trichlorophenyl)but-1-en-1-yl)-2-(trifluoromethyl)benzamide], the mortality at 50 µg/cm2 in assay [1] and in assay [2] was 50 to 100% throughout.

Regarding `C[C@H](CS(=O)(=O)CC(F)(F)F)NC(=O)c1ccc(/C(F)=C/C(c2cc(F)c(F)c(Br)c2)C(F)(F)F)cc1C(F)(F)F` (stereo partly drawn) [F94, 4-((Z)-3-(3-Bromo-4,5-difluorophenyl)-1,4,4,4-tetrafluorobut-1-en-1-yl)-N—((R)-1-((2,2,2-trifluoroethyl)sulfonyl)propan-2-yl)-2-(trifluoromethyl)benzamide], the mortality at 50 µg/cm2 in assay [1] and in assay [2] was 50 to 100% each time.

Turning to `C[C@H](C[S+]([O-])CC(C)(F)F)NC(=O)c1ccc(/C(F)=C/C(c2cc(Cl)c(Cl)c(Cl)c2)C(F)(F)F)cc1C(F)(F)F` (stereo partly drawn) [F96, N-((2R)-1-((2,2-Difluoropropyl)sulfinyl)propan-2-yl)-4-((Z)-1,4,4,4-tetrafluoro-3-(3,4,5-trichlorophenyl)but-1-en-1-yl)-2-(trifluoromethyl)benzamide], the mortality at 50 µg/cm2 in assay [1] and in assay [2] was 50 to 100% each time.

`C[C@H](CS(=O)(=O)CC(C)(F)F)NC(=O)c1ccc(/C(F)=C/C(c2cc(Cl)c(Cl)c(Cl)c2)C(F)(F)F)cc1C(F)(F)F` (stereo partly drawn) [F97, N—((R)-1-((2,2-difluoropropyl)sulfonyl)propan-2-yl)-4-((Z)-1,4,4,4-tetrafluoro-3-(3,4,5-trichlorophenyl)but-1-en-1-yl)-2-(trifluoromethyl)benzamide]: the mortality at 50 µg/cm2 in assay [1] and in assay [2] was 50 to 100% each time.

As for `CC(C)(CS(C)(=O)=O)NC(=O)c1ccc(/C(F)=C/C(c2cc(Cl)c(Cl)c(Cl)c2)C(F)(F)F)cc1C(F)(F)F` (stereo not drawn) [F100, (Z)—N-(2-Methyl-1-(methylsulfonyl)propan-2-yl)-4-(1,4,4,4-tetrafluoro-3-(3,4,5-trichlorophenyl)but-1-en-1-yl)-2-(trifluoromethyl)benzamide], the mortality at 50 µg/cm2 in assay [1] and in assay [2] was 50 to 100% each time.

For `CSC(C)C(C)NC(=O)c1ccc(/C(F)=C/C(c2cc(Cl)c(Cl)c(Cl)c2)C(F)(F)F)cc1C(F)(F)F` (stereo not drawn) [F101, (Z)—N-(3-(methylthio)butan-2-yl)-4-(1,4,4,4-tetrafluoro-3-(3,4,5-trichlorophenyl)but-1-en-1-yl)-2-(trifluoromethyl)benzamide], the mortality at 50 µg/cm2 in assay [1] and in assay [2] was 50 to 100% throughout.

As for `C[C@H](CS(=O)(=O)CC(F)(F)F)NC(=O)c1ccc(/C(F)=C/C(c2ccc(OC(F)(F)F)c(Cl)c2)C(F)(F)F)cc1C(F)(F)F` (stereo partly drawn) [F109, 4-((Z)-3-(3-Chloro-4-(trifluoromethoxy)phenyl)-1,4,4,4-tetrafluorobut-1-en-1-yl)-N—((R)-1-((2,2,2-trifluoroethyl)sulfonyl)propan-2-yl)-2-(trifluoromethyl)benzamide], the mortality at 50 µg/cm2 in assay [1] and in assay [2] was 50 to 100% throughout.

For `C[C@H](CS(=O)(=O)CC(F)(F)F)NC(=O)c1ccc(/C(F)=C/C(c2cc(Cl)cc(OC(F)(F)F)c2)C(F)(F)F)cc1C(F)(F)F` (stereo partly drawn) [F110, 4-((Z)-3-(3-Chloro-5-(trifluoromethoxy)phenyl)-1,4,4,4-tetrafluorobut-1-en-1-yl)-N—((R)-1-((2,2,2-trifluoroethyl)sulfonyl)propan-2-yl)-2-(trifluoromethyl)benzamide], the mortality at 50 µg/cm2 in assay [1] and in assay [2] was 50 to 100% in each case.

With `C=Cc1cc(Cl)cc(C(/C=C(\F)c2ccc(C(=O)N[C@H](C)CS(=O)(=O)CC(F)(F)F)c(C(F)(F)F)c2)C(F)(F)F)c1` (stereo partly drawn) [F112, 4-((Z)-3-(3-Chloro-5-vinylphenyl)-1,4,4,4-tetrafluorobut-1-en-1-yl)-N—((R)-1-((2,2,2-trifluoroethyl)sulfonyl)propan-2-yl)-2-(trifluoromethyl)benzamide], the mortality at 50 µg/cm2 in assay [1] and in assay [2] was 50 to 100% throughout.

As to `C[C@H](CSCC(C)(F)F)NC(=O)c1ccc(/C(F)=C/C(c2cc(Cl)c(Cl)c(Cl)c2)C(F)(F)F)cc1C(F)(F)F` (stereo partly drawn) [F113, N—((R)-1-((2,2-Difluoropropyl)thio)propan-2-yl)-4-((Z)-1,4,4,4-tetrafluoro-3-(3,4,5-trichlorophenyl)but-1-en-1-yl)-2-(trifluoromethyl)benzamide], the mortality at 50 µg/cm2 in assay [1] and in assay [2] was 50 to 100% in each case.

With `C=C(C)c1cc(C(/C=C(\F)c2ccc(C(=O)N[C@H](C)CS(=O)(=O)CC(F)(F)F)c(C(F)(F)F)c2)C(F)(F)F)cc(Cl)c1Cl` (stereo partly drawn) [F114, 4-((Z)-3-(3,4-Dichloro-5-(prop-1-en-2-yl)phenyl)-1,4,4,4-tetrafluorobut-1-en-1-yl)-N—((R)-1-((2,2,2-trifluoroethyl)sulfonyl)propan-2-yl)-2-(trifluoromethyl)benzamide], the mortality at 50 µg/cm2 in assay [1] and in assay [2] was 50 to 100% each time.

On to `C=Cc1cc(/C(F)=C/C(c2cc(Cl)c(Cl)c(Cl)c2)C(F)(F)F)ccc1C(=O)N[C@H](C)CS(=O)(=O)CC(F)(F)F` (stereo partly drawn) [F116], for which the mortality at 50 µg/cm2 in assay [1] and in assay [2] was 50 to 100% in each case.

In the case of `C[C@H](CSCC(F)(F)F)NC(=O)c1ccc(/C(F)=C/C(c2cc(F)c(Cl)c(C(F)(F)F)c2)C(F)(F)F)cc1C(F)(F)F` (stereo partly drawn) [F117, 4-((Z)-3-(4-Chloro-3-fluoro-5-(trifluoromethyl)phenyl)-1,4,4,4-tetrafluorobut-1-en-1-yl)-N—((R)-1-((2,2,2-trifluoroethyl)thio)propan-2-yl)-2-(trifluoromethyl)benzamide], the mortality at 50 µg/cm2 in assay [1] and in assay [2] was 50 to 100% each time.

`C[C@H](CS(=O)(=O)CC(F)(F)F)NC(=O)c1ccc(/C(F)=C/C(c2cc(Cl)cc(C(C)(F)F)c2)C(F)(F)F)cc1C(F)(F)F` (stereo partly drawn) [F120, 4-((Z)-3-(3-Chloro-5-(1,1-difluoroethyl)phenyl)-1,4,4,4-tetrafluorobut-1-en-1-yl)-N—((R)-1-((2,2,2-trifluoroethyl)sulfonyl)propan-2-yl)-2-(trifluoromethyl)benzamide]: the mortality at 50 µg/cm2 in assay [1] and in assay [2] was 50 to 100% each time.

Consider `CC(CNC(=O)c1ccc(/C(F)=C/C(c2cc(Cl)c(Cl)c(Cl)c2)C(F)(F)F)cc1C(F)(F)F)S(C)(=O)=O` (stereo not drawn) [F124, (Z)—N-(2-(methylsulfonyl)propyl)-4-(1,4,4,4-tetrafluoro-3-(3,4,5-trichlorophenyl)but-1-en-1-yl)-2-(trifluoromethyl)benzamide], for which the mortality at 50 µg/cm2 in assay [1] and in assay [2] was 50 to 100% each time.

For the molecule `C[C@H](CS(=O)(=O)CC(F)(F)F)NC(=O)c1ccc(/C(F)=C/C(c2cc(F)cc(Cl)c2)C(F)(F)F)cc1C(F)(F)F` (stereo partly drawn) [F126, 4-((Z)-3-(3-Chloro-5-fluorophenyl)-1,4,4,4-tetrafluorobut-1-en-1-yl)-N—((R)-1-((2,2,2-trifluoroethyl)sulfonyl)propan-2-yl)-2-(trifluoromethyl)benzamide], the mortality at 50 µg/cm2 in assay [1] and in assay [2] was 50 to 100% throughout.

`C[C@H](CS(=O)(=O)CC(F)(F)F)NC(=O)c1ccc(/C(F)=C/C(c2ccc(Cl)c(OC(F)(F)F)c2)C(F)(F)F)cc1C(F)(F)F` (stereo partly drawn) [F127, 4-((Z)-3-(4-Chloro-3-(trifluoromethoxy)phenyl)-1,4,4,4-tetrafluorobut-1-en-1-yl)-N—((R)-1-((2,2,2-trifluoroethyl)sulfonyl)propan-2-yl)-2-(trifluoromethyl)benzamide]: the mortality at 50 µg/cm2 in assay [1] and in assay [2] was 50 to 100% throughout.

For `C[C@H](CSCCC#N)NC(=O)c1ccc(/C(F)=C/C(c2cc(Cl)c(Cl)c(Cl)c2)C(F)(F)F)cc1C(F)(F)F` (stereo partly drawn) [F128, N—((R)-1-((2-Cyanoethyl)thio)propan-2-yl)-4-((Z)-1,4,4,4-tetrafluoro-3-(3,4,5-trichlorophenyl)but-1-en-1-yl)-2-(trifluoromethyl)benzamide], the mortality at 50 µg/cm2 in assay [1] and in assay [2] was 50 to 100% throughout.

`C[C@H](CS(=O)(=O)CC(F)F)NC(=O)c1ccc(/C(F)=C/C(c2cc(Cl)c(Cl)c(Cl)c2)C(F)(F)F)cc1C(F)(F)F` (stereo partly drawn) [F129, N—((R)-1-((2,2-difluoroethyl)sulfonyl)propan-2-yl)-4-((Z)-1,4,4,4-tetrafluoro-3-(3,4,5-trichlorophenyl)but-1-en-1-yl)-2-(trifluoromethyl)benzamide]: the mortality at 50 µg/cm2 in assay [1] and in assay [2] was 50 to 100% throughout.

As for `Cc1c(C(/C=C(\F)c2ccc(C(=O)N[C@H](C)CS(=O)(=O)CC(F)(F)F)c(C(F)(F)F)c2)C(F)(F)F)ccc(Cl)c1Cl` (stereo partly drawn) [F132, 4-((Z)-3-(3,4-Dichloro-2-methylphenyl)-1,4,4,4-tetrafluorobut-1-en-1-yl)-N—((R)-1-((2,2,2-trifluoroethyl)sulfonyl)propan-2-yl)-2-(trifluoromethyl)benzamide], the mortality at 50 µg/cm2 in assay [1] and in assay [2] was 50 to 100% throughout.
